In ChEMBL document CHEMBL2086371, “4-quinolones as noncovalent inhibitors of high molecular mass penicillin-binding proteins” (ACS Med Chem Lett, 2012):
Activity calls are given as the source filed them. The rule behind the calls is not given here.

Columns and labels:
[1] = system: Escherichia coli; assay: Inhibition of bocillin FL binding to Escherichia coli MM 294 PBP by whole-cell assay
[2] = system: Escherichia coli; assay: Inhibition of bocillin FL binding to PBP 5/6 in Escherichia coli MM 294 membrane preparation at 1 mM by gel electrophoresis; format: cell membranes
[3] = system: Bacillus subtilis; assay: Inhibition of bocillin FL binding to Bacillus subtilis PBP3/4 at 1 mM by gel electrophoresis
[4] = Inhibition of bocillin FL binding to PBP 1a/1b in Escherichia coli MM 294 membrane preparation by gel electrophoresis; format: cell membranes
[5] = Inhibition of bocillin FL binding to PBP 3 in Escherichia coli MM 294 membrane preparation by gel electrophoresis; format: cell membranes
[6] = system: Bacillus subtilis; assay: Inhibition of bocillin FL binding to Bacillus subtilis PBP2 at 1 mM by gel electrophoresis
[7] = system: Escherichia coli; assay: Antibacterial activity against Escherichia coli MM 294 after 20 hrs by tube dilution method; format: functional; settings: MM 294, 20 h
[8] = system: Bacillus subtilis; assay: Inhibition of bocillin FL binding to Bacillus subtilis PBP1 at 1 mM by gel electrophoresis
[9] = Inhibition of bocillin FL binding to PBP 4 in Escherichia coli MM 294 membrane preparation by gel electrophoresis; format: cell membranes
[10] = Inhibition of bocillin FL binding to PBP 2 in Escherichia coli MM 294 membrane preparation by gel electrophoresis; format: cell membranes
[11] = system: Bacillus subtilis; assay: Antibacterial activity against Bacillus subtilis after 20 hrs by tube dilution method; format: functional, organism-based
[12] = system: Bacillus subtilis; assay: Inhibition of bocillin FL binding to Bacillus subtilis PBP5 at 1 mM by gel electrophoresis
[13] = Inhibition of bocillin FL binding to PBP 5/6 in Escherichia coli MM 294 membrane preparation by gel electrophoresis; format: cell membranes
[14] = system: Escherichia coli; assay: Inhibition of bocillin FL binding to PBP 4 in Escherichia coli MM 294 membrane preparation at 1 mM by gel electrophoresis; format: cell membranes
[15] = system: Escherichia coli; assay: Inhibition of bocillin FL binding to PBP 3 in Escherichia coli MM 294 membrane preparation at 1 mM by gel electrophoresis; format: cell membranes
[16] = system: Escherichia coli; assay: Inhibition of bocillin FL binding to PBP 2 in Escherichia coli MM 294 membrane preparation at 1 mM by gel electrophoresis; format: cell membranes
[17] = system: Escherichia coli; assay: Inhibition of bocillin FL binding to PBP 1a/1b in Escherichia coli MM 294 membrane preparation at 1 mM by gel electrophoresis; format: cell membranes
[18] = system: Escherichia coli; assay: Inhibition of bocillin FL binding to Escherichia coli MM 294 PBP 5/6 by cell-free assay
[19] = Inhibition of bocillin FL binding to Escherichia coli MM 294 PBP2 by cell-free assay

## O=C(O)c1cc(=O)c2ccccc2[nH]1 [TRANSTORINE]
[1]
  inhibition: inactive
[2]
  inhibition: inactive
[3]
  inhibition: Active
[4]
  Ki: 470 µM
[5]
  Ki: 950 µM
[6]
  inhibition: Active
[7]
  MIC: > 1000 µM
[8]
  inhibition: Active
[9]
  Ki: 37 µM
[10]
  Ki: 210 µM
[11]
  Activity: inactive
[12]
  inhibition: Active

## O=c1cc(CCO)[nH]c2ccccc12
[1]
  inhibition: inactive
[3]
  inhibition: Active
[4]
  Ki: 37 µM
[5]
  Ki: 120 µM
[6]
  inhibition: Active
[7]
  MIC: > 1000 µM
[8]
  inhibition: Active
[9]
  Ki: 7 µM
[13]
  Ki: 520 µM
[10]
  Ki: 26 µM
[11]
  Activity: inactive
[12]
  inhibition: Active

## Oc1cccc2nccc(O)c12
[1]
  inhibition: inactive
[2]
  inhibition: inactive
[14]
  inhibition: inactive
[3]
  inhibition: Active
[6]
  inhibition: Active
[7]
  MIC: > 1000 µM
[8]
  inhibition: Active
[15]
  inhibition: inactive
[16]
  inhibition: inactive
[11]
  Activity: inactive
[17]
  inhibition: inactive
[12]
  inhibition: Active

## O=c1cc(CO)[nH]c2ccccc12
[1]
  inhibition: inactive
[3]
  inhibition: Active
[4]
  Ki: 27 µM
[5]
  Ki: 27 µM
[6]
  inhibition: Active
[7]
  MIC: > 1000 µM
[8]
  inhibition: Active
[9]
  Ki: 4.8 µM
[18]
  inhibition: inactive
[13]
  Ki: 220 µM
[10]
  Ki: 26 µM
[11]
  Activity: inactive
[19]
  Ki: 64 µM
[12]
  inhibition: Active

## Oc1ccnc2ccccc12
[2]
  inhibition: inactive
[14]
  inhibition: inactive
[15]
  inhibition: inactive
[16]
  inhibition: inactive
[17]
  inhibition: inactive

## O=c1cc[nH]c2cc(O)ccc12
[1]
  inhibition: inactive
[2]
  inhibition: inactive
[3]
  inhibition: Active
[4]
  Ki: 510 µM
[6]
  inhibition: Active
[7]
  MIC: > 1000 µM
[8]
  inhibition: Active
[9]
  Ki: 55 µM
[15]
  inhibition: inactive
[10]
  Ki: 89 µM
[11]
  Activity: inactive
[12]
  inhibition: Active

## O=C(O)Cc1c[nH]c2ccccc2c1=O
[1]
  inhibition: inactive
[2]
  inhibition: inactive
[3]
  inhibition: Active
[4]
  Ki: 300 µM
[6]
  inhibition: Active
[7]
  MIC: > 1000 µM
[8]
  inhibition: Active
[9]
  Ki: 29 µM
[15]
  inhibition: inactive
[10]
  Ki: 250 µM
[11]
  Activity: inactive
[12]
  inhibition: Active

## O=c1cc(CCCO)[nH]c2ccccc12
[1]
  inhibition: inactive
[2]
  inhibition: inactive
[3]
  inhibition: Active
[4]
  Ki: 49 µM
[5]
  Ki: 120 µM
[6]
  inhibition: Active
[7]
  MIC: > 1000 µM
[8]
  inhibition: Active
[9]
  Ki: 6.1 µM
[10]
  Ki: 50 µM
[11]
  Activity: inactive
[12]
  inhibition: Active

## O=c1c(CCO)c[nH]c2ccccc12
[1]
  inhibition: inactive
[2]
  inhibition: inactive
[3]
  inhibition: Active
[4]
  Ki: 38 µM
[5]
  Ki: 70 µM
[6]
  inhibition: Active
[7]
  MIC: > 1000 µM
[8]
  inhibition: Active
[9]
  Ki: 3.1 µM
[10]
  Ki: 27 µM
[11]
  Activity: inactive
[12]
  inhibition: Active
